Where “and” joins values, the source holds several entries; their conditions need not be identical. Equal entries are not always repeated.
Columns and labels:
CA-MRSA 40065 = assay: Biocidal activity in bacterial suspension (Example 18); format: cell-based, Staphylococcus aureus; conditions: 15 ppm [Cl+]
Procedure: Logarithmic-phase cultures of MRSA were prepared using similar way except TSA broth was used instead.
(§1) Biocidal activity of synthetic compounds was completed as followed. To 20 mL of bacterial suspension (10^5 or 10^6 cfu/mL) in a centrifuge tube was added 30 μL solution of synthetic compounds (0.282 M stock solution) to achieve a final [Cl^+] of 15 ppm. Timing of the exposure to the disinfectant was started immediately with the addition of the synthetic compound. After predetermined contact time, 1.0 mL aliquots were withdrawn and added to an equal volume of 0.02 N sodium thiosulfate in PBS (0.1 M, pH 7.4). The quenched suspension was serially diluted and 100 μL of each resulting dilution was placed onto nutrient agar plates. After being incubated at 37° C. for 24 hours, the viable bacterial colonies on the plates were counted. Bacterial reduction was reported according to:
(§2) Percentage reduction of bacteria (%)=(A−B)/A×100
(§3) Log reduction=Log(A/B) (4)
(§4) where A is the number of bacteria in the starting inoculum (cfu/mL), and B is the number of bacteria retrieved from synthetic compounds (cfu/mL).

P. aeruginosa 73104 = assay: as above; format: cell-based, Pseudomonas aeruginosa; conditions: 15 ppm [Cl+]; for Reduction of P. aeruginosa: 10^6 cfu/mL P. aeruginosa, within 60 min of contact
Procedure: Logarithmic-phase cultures of P. aeruginosa were prepared by initially suspending several colonies in cation-supplemented Mueller-Hinton broth (Oxoid, Nepean, Ontario, Canada) at a density equivalent to a 0.5 McFarland standard (1×10^8 cfu/mL). This suspension was then diluted 1:100 and 20 μL of the diluted suspension was further diluted in 60 mL of cation-supplemented Mueller-Hinton broth. Following overnight growth at 37° C., suspensions were diluted 1:[…] to get inoculums of approximately 1×10^6 or 1×10^5 cfu/mL.
as §1, §2, §3, §4

[1] = Table 2, contact 3 min, inoculum 1.57-1.75 × 10^6 CFU/mL
[2] = Table 2, contact 5 min, inoculum 1.57-1.75 × 10^6 CFU/mL
[3] = Table 2, contact 10 min, inoculum 1.57-1.75 × 10^6 CFU/mL
[4] = Table 2, contact 60 min, inoculum 1.57-1.75 × 10^6 CFU/mL
[5] = Table 3, contact 3 min, inoculum 2.26 × 10^5 CFU/mL
[6] = Table 3, contact 5 min, inoculum 2.26 × 10^5 CFU/mL
[7] = Table 3, contact 10 min, inoculum 2.26 × 10^5 CFU/mL
[8] = Table 3, contact 60 min, inoculum 2.26 × 10^5 CFU/mL
[9] = Table 3, contact 90 min, inoculum 2.26 × 10^5 CFU/mL
[10] = Table 4, contact 3 min, inoculum 2.26-2.98 × 10^5 CFU/mL
[11] = Table 4, contact 5 min, inoculum 2.26-2.98 × 10^5 CFU/mL
[12] = Table 4, contact 10 min, inoculum 2.26-2.98 × 10^5 CFU/mL
[13] = Table 4, contact 20 min, inoculum 2.26-2.98 × 10^5 CFU/mL
[14] = Table 4, contact 30 min, inoculum 2.26-2.98 × 10^5 CFU/mL
[15] = Table 4, contact 45 min, inoculum 2.26-2.98 × 10^5 CFU/mL
[16] = Table 4, contact 60 min, inoculum 2.26-2.98 × 10^5 CFU/mL
[17] = Table 2, contact 1 min, inoculum 1.57-1.75 × 10^6 CFU/mL
[18] = Table 5, contact 3 min, inoculum 2.83 × 10^6 cfu/mL
[19] = Table 5, contact 5 min, inoculum 2.83 × 10^6 cfu/mL
[20] = Table 5, contact 10 min, inoculum 2.83 × 10^6 cfu/mL
[21] = Table 5, contact 20 min, inoculum 2.83 × 10^6 cfu/mL
[22] = Table 5, contact 30 min, inoculum 2.83 × 10^6 cfu/mL
[23] = Table 5, contact 45 min, inoculum 2.83 × 10^6 cfu/mL
[24] = Table 5, contact 60 min, inoculum 2.83 × 10^6 cfu/mL

Structure (SMILES) | Bacteria reduction % (CA-MRSA 40065; [1]) [%] | Bacteria reduction Log10 (CA-MRSA 40065; [1]) [Log10] | Bacteria reduction % (CA-MRSA 40065; [2]) [%] | Bacteria reduction Log10 (CA-MRSA 40065; [2]) [Log10] | Bacteria reduction % (CA-MRSA 40065; [3]) [%] | Bacteria reduction Log10 (CA-MRSA 40065; [3]) [Log10] | Bacteria reduction % (P. aeruginosa 73104; [10]) [%] | Bacteria reduction Log (P. aeruginosa 73104; [10]) [Log] | Bacteria reduction % (P. aeruginosa 73104; [11]) [%] | Bacteria reduction Log (P. aeruginosa 73104; [11]) [Log] | Bacteria reduction % (P. aeruginosa 73104; [12]) [%] | Bacteria reduction Log (P. aeruginosa 73104; [12]) [Log] | Bacteria reduction % (P. aeruginosa 73104; [13]) [%] | Bacteria reduction Log (P. aeruginosa 73104; [13]) [Log] | Bacteria reduction % (P. aeruginosa 73104; [14]) [%] | Bacteria reduction Log (P. aeruginosa 73104; [14]) [Log] | Bacteria reduction % (P. aeruginosa 73104; [15]) [%] | Bacteria reduction Log (P. aeruginosa 73104; [15]) [Log] | Bacteria reduction % (P. aeruginosa 73104; [16]) [%] | Bacteria reduction Log (P. aeruginosa 73104; [16]) [Log] | other results
CC1(C)C(=O)N(CCC[N+](C)(C)CC[N+](C)(C)C)C(=O)N1Cl.[Cl-].[Cl-] [Compound 12] | 88.0 | 0.92 | 92.3 | 0.92 | 94.2 | 1.24 | 39.8 | 0.22 | 44.7 | 0.26 | 62.8 | 0.43 | 99.70 | 2.50 | 100 | 4.82 | 100 | 5.47 | 100 | 5.47 | Bacteria reduction % (CA-MRSA 40065; [4]): 99.5%; Bacteria reduction Log10 (CA-MRSA 40065; [4]): 2.31 Log10; Reduction of P. aeruginosa (P. aeruginosa 73104): cannot bring any significant reduction; Bacteria reduction % (P. aeruginosa 73104; [5]): 39.8 ± 10.0%; Bacteria reduction % (P. aeruginosa 73104; [6]): 44.7 ± 1.9%; Bacteria reduction Log10 (P. aeruginosa 73104; [7]): 0.43 ± 0.01 Log10; Bacteria reduction % (P. aeruginosa 73104; [8]): 100%; Bacteria reduction Log10 (P. aeruginosa 73104; [8]): 5.35 Log10; Bacteria reduction % (P. aeruginosa 73104; [9]): 100%; Bacteria reduction Log10 (P. aeruginosa 73104; [9]): 5.35 Log10
CC1(C)C(=O)N(CCC[N+](C)(C)CCCN2C(=O)N(Cl)C(C)(C)C2=O)C(=O)N1Cl.[Cl-] [Compound 14] | 79.1 | 0.68 | 64.3 | 0.45 | 91.9 | 1.09 | 22.6 | 0.11 | 24.8 | 0.13 | 26.6 | 0.14 | 70.8 |  | 99.96 | 3.39 | 100 | 5.47 | 100 | 5.47 | Bacteria reduction % (CA-MRSA 40065; [17]): 85.8%; Bacteria reduction Log10 (CA-MRSA 40065; [17]): 0.85 Log10; Bacteria reduction % (CA-MRSA 40065; [4]): 99.5%; Bacteria reduction Log10 (CA-MRSA 40065; [4]): 2.32 Log10; Reduction of P. aeruginosa (P. aeruginosa 73104): cannot bring any significant reduction; Bacteria reduction % (P. aeruginosa 73104; [5]): 22.6 ± 4.4%; Bacteria reduction % (P. aeruginosa 73104; [6]): 24.8 ± 10.0%; Bacteria reduction % (P. aeruginosa 73104; [7]): 26.6% and 26.6 ± 12.5%; Bacteria reduction Log10 (P. aeruginosa 73104; [7]): 0.14 ± 0.07 Log10; Bacteria reduction % (P. aeruginosa 73104; [8]): 100%; Bacteria reduction Log10 (P. aeruginosa 73104; [8]): 5.35 Log10; Bacteria reduction % (P. aeruginosa 73104; [9]): 100%; Bacteria reduction Log10 (P. aeruginosa 73104; [9]): 5.35 Log10
CCCCCCCCCCCC[N+](C)(C)CCn1cc(C[N+](C)(C)CCCN2C(=O)NC(C)(C)C2=O)nn1 [Compound 15] |  |  |  |  |  |  | 75.7 | 0.74 | 98.4 | 1.88 | 99.9 | 3.02 | 99.97 | 4.32 | 100 | 5.47 | 100 | 5.47 | 100 | 5.47 | Bacteria reduction % (CA-MRSA 40065; [18]): 86.9%; Bacteria reduction % (CA-MRSA 40065; [19]): 79.5%; Bacteria reduction Log (CA-MRSA 40065; [19]): 0.69 Log; Bacteria reduction % (CA-MRSA 40065; [20]): 85.1%; Bacteria reduction Log (CA-MRSA 40065; [20]): 0.83 Log; Bacteria reduction % (CA-MRSA 40065; [21]): 67.8%; Bacteria reduction Log (CA-MRSA 40065; [21]): 0.49 Log; Bacteria reduction % (CA-MRSA 40065; [22]): 79.8%; Bacteria reduction Log (CA-MRSA 40065; [22]): 0.70 Log; Bacteria reduction % (CA-MRSA 40065; [23]): 92.6%; Bacteria reduction Log (CA-MRSA 40065; [23]): 1.13 Log; Bacteria reduction % (CA-MRSA 40065; [24]): 87.3%; Bacteria reduction Log (CA-MRSA 40065; [24]): 0.89 Log; Bacteria reduction % (CA-MRSA 40065; independent of contact duration (3-60 minutes)): around 80%
CCCCCCCCCCCC[N+](C)(C)CCn1cc(C[N+](C)(C)CCCN2C(=O)N(Cl)C(C)(C)C2=O)nn1 [Compound 16] |  |  |  |  |  |  | 99.6 | 2.62 | 99.97 | 4.32 | 100 | 5.47 | 100 | 5.47 | 100 | 5.47 | 100 | 5.47 | 100 | 5.47 | Bacteria reduction % (CA-MRSA 40065; [18]): 84.4%; Bacteria reduction % (CA-MRSA 40065; [19]): 93.4%; Bacteria reduction Log (CA-MRSA 40065; [19]): > 1 Log and 1.18 Log; Bacteria reduction % (CA-MRSA 40065; [20]): 99.8%; Bacteria reduction Log (CA-MRSA 40065; [20]): 2.77 Log; Bacteria reduction % (CA-MRSA 40065; [21]): 100%; Bacteria reduction Log (CA-MRSA 40065; [21]): 6.45 Log; Bacteria reduction % (CA-MRSA 40065; [22]): 100%; Bacteria reduction Log (CA-MRSA 40065; [22]): 6.45 Log; Bacteria reduction % (CA-MRSA 40065; [23]): 100%; Bacteria reduction Log (CA-MRSA 40065; [23]): 6.45 Log; Bacteria reduction % (CA-MRSA 40065; [24]): 100%; Bacteria reduction Log (CA-MRSA 40065; [24]): 6.45 Log
